# Laboratory results: PubChem BioAssay (NCI)
#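 A five-concentration, 48-hour dose response in 96-well plates underlies each endpoint, interpolated linearly between surrounding concentrations. Here, GI50 denotes the concentration required for 50% inhibition of growth. At the TGI there is no net growth.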
# Tests used:
# Test in all cases: growth of human tumour cells (NCI), 48 h
# OVCAR-4 ovarian = test system: OVCAR-4 ovarian
# HCT-116 colon = test system: HCT-116 colon
# MOLT-4 leukemia = test system: MOLT-4 leukemia
# LOX IMVI melanoma = test system: LOX IMVI melanoma
# NCI-H522 lung = test system: NCI-H522 lung
# SW-620 colon = test system: SW-620 colon
# RXF 393 renal = test system: RXF 393 renal
# HOP-92 NSCLC = test system: HOP-92 NSCLC
# CCRF-CEM leukemia = test system: CCRF-CEM leukemia
# KM12 colon = test system: KM12 colon
# SF-268 CNS = test system: SF-268 CNS
# SN12C renal = test system: SN12C renal
# MALME-3M melanoma = test system: MALME-3M melanoma
# SF-539 CNS = test system: SF-539 CNS
# K-562 leukemia = test system: K-562 leukemia
# HOP-62 NSCLC = test system: HOP-62 NSCLC
# MDA-MB-231 breast = test system: MDA-MB-231 breast
# DU-145 prostate = test system: DU-145 prostate
# TK-10 renal = test system: TK-10 renal
# SK-MEL-2 melanoma = test system: SK-MEL-2 melanoma
# HS 578T breast = test system: HS 578T breast
# UACC-62 melanoma = test system: UACC-62 melanoma
# BT-549 breast = test system: BT-549 breast
# NCI/ADR-RES ovarian = test system: NCI/ADR-RES ovarian
# A549 NSCLC = test system: A549 NSCLC
# OVCAR-3 ovarian = test system: OVCAR-3 ovarian
# M14 melanoma = test system: M14 melanoma
# NCI-H23 lung = test system: NCI-H23 lung
# SR leukemia = test system: SR leukemia
# ACHN renal = test system: ACHN renal
# HL-60(TB) leukemia = test system: HL-60(TB) leukemia
# T-47D breast = test system: T-47D breast
# OVCAR-8 ovarian = test system: OVCAR-8 ovarian
# SNB-19 CNS = test system: SNB-19 CNS
# NCI-H226 lung = test system: NCI-H226 lung
# COLO 205 colon = test system: COLO 205 colon
# UO-31 renal = test system: UO-31 renal
# IGROV1 ovarian = test system: IGROV1 ovarian
# HT29 colon = test system: HT29 colon
# MCF7 breast = test system: MCF7 breast
# SF-295 CNS = test system: SF-295 CNS
# MDA-MB-435 = test system: MDA-MB-435
# UACC-257 melanoma = test system: UACC-257 melanoma
# SK-OV-3 ovarian = test system: SK-OV-3 ovarian
# OVCAR-5 ovarian = test system: OVCAR-5 ovarian
# CAKI-1 renal = test system: CAKI-1 renal
# HCT-15 colon = test system: HCT-15 colon
# HCC-2998 colon = test system: HCC-2998 colon
# NCI-H460 lung = test system: NCI-H460 lung
# U251 CNS = test system: U251 CNS
# 786-0 renal = test system: 786-0 renal
# RPMI-8226 leukemia = test system: RPMI-8226 leukemia
# PC-3 prostate = test system: PC-3 prostate
# SK-MEL-28 melanoma = test system: SK-MEL-28 melanoma
# EKVX NSCLC = test system: EKVX NSCLC
# SK-MEL-5 melanoma = test system: SK-MEL-5 melanoma
# SNB-75 CNS = test system: SNB-75 CNS
smiles,measurement,setting,value
CC(C)=CCc1c2c(c(O)c3c1O[C@]14C(=C[C@@H]5C[C@H]1C(C)(C)O[C@@]4(C/C=C(/C)C(=O)O)C5=O)C3=O)C=CC(C)(C)O2,GI50,OVCAR-4 ovarian,15.6 µM
same,TGI,OVCAR-4 ovarian,36.8 µM
same,GI50,HCT-116 colon,11.4 µM
same,TGI,HCT-116 colon,24.2 µM
same,GI50,MOLT-4 leukemia,14.3 µM
same,TGI,MOLT-4 leukemia,63 µM
same,GI50,LOX IMVI melanoma,3.51 µM
same,TGI,LOX IMVI melanoma,14.4 µM
same,GI50,NCI-H522 lung,16 µM
same,TGI,NCI-H522 lung,30.3 µM
same,GI50,SW-620 colon,4.06 µM
same,TGI,SW-620 colon,17.4 µM
same,GI50,RXF 393 renal,12.6 µM
same,TGI,RXF 393 renal,28.2 µM
same,GI50,HOP-92 NSCLC,11.7 µM
same,TGI,HOP-92 NSCLC,26.7 µM
same,GI50,CCRF-CEM leukemia,0.987 µM
same,TGI,CCRF-CEM leukemia,23.4 µM
same,GI50,KM12 colon,16.7 µM
same,TGI,KM12 colon,33.5 µM
same,GI50,SF-268 CNS,15.4 µM
same,TGI,SF-268 CNS,31.4 µM
same,GI50,SN12C renal,17.5 µM
same,TGI,SN12C renal,46.3 µM
same,GI50,MALME-3M melanoma,13.1 µM
same,TGI,MALME-3M melanoma,27.8 µM
same,GI50,SF-539 CNS,16.5 µM
same,TGI,SF-539 CNS,35.1 µM
same,GI50,K-562 leukemia,6.43 µM
same,TGI,K-562 leukemia,> 100 µM
same,GI50,HOP-62 NSCLC,15.4 µM
same,TGI,HOP-62 NSCLC,31.5 µM
same,GI50,MDA-MB-231 breast,13.2 µM
same,TGI,MDA-MB-231 breast,33.7 µM
same,GI50,DU-145 prostate,15.6 µM
same,TGI,DU-145 prostate,29 µM
same,GI50,TK-10 renal,18 µM
same,TGI,TK-10 renal,32.3 µM
same,GI50,SK-MEL-2 melanoma,18.1 µM
same,TGI,SK-MEL-2 melanoma,38.5 µM
same,GI50,HS 578T breast,17.3 µM
same,TGI,HS 578T breast,58.9 µM
same,GI50,UACC-62 melanoma,15.3 µM
same,TGI,UACC-62 melanoma,32.2 µM
same,GI50,BT-549 breast,14.4 µM
same,TGI,BT-549 breast,29.1 µM
same,GI50,NCI/ADR-RES ovarian,21.3 µM
same,TGI,NCI/ADR-RES ovarian,75.3 µM
same,GI50,A549 NSCLC,20.9 µM
same,TGI,A549 NSCLC,45.6 µM
same,GI50,OVCAR-3 ovarian,10.2 µM
same,TGI,OVCAR-3 ovarian,22 µM
same,GI50,M14 melanoma,12.8 µM
same,TGI,M14 melanoma,29.5 µM
same,GI50,NCI-H23 lung,19.6 µM
same,TGI,NCI-H23 lung,49.4 µM
same,GI50,SR leukemia,3.13 µM
same,TGI,SR leukemia,> 100 µM
same,GI50,ACHN renal,12.2 µM
same,TGI,ACHN renal,25.7 µM
same,GI50,HL-60(TB) leukemia,12 µM
same,TGI,HL-60(TB) leukemia,43.2 µM
same,GI50,T-47D breast,10 µM
same,TGI,T-47D breast,31.1 µM
same,GI50,OVCAR-8 ovarian,12.7 µM
same,TGI,OVCAR-8 ovarian,33.6 µM
same,GI50,SNB-19 CNS,17.2 µM
same,TGI,SNB-19 CNS,33.6 µM
same,GI50,NCI-H226 lung,21.7 µM
same,TGI,NCI-H226 lung,50.2 µM
same,GI50,COLO 205 colon,17 µM
same,TGI,COLO 205 colon,37.9 µM
same,GI50,UO-31 renal,9.78 µM
same,TGI,UO-31 renal,23.1 µM
same,GI50,IGROV1 ovarian,4.64 µM
same,TGI,IGROV1 ovarian,17.7 µM
same,GI50,HT29 colon,12.9 µM
same,TGI,HT29 colon,32.6 µM
same,GI50,MCF7 breast,5.59 µM
same,TGI,MCF7 breast,42.4 µM
same,GI50,SF-295 CNS,17.7 µM
same,TGI,SF-295 CNS,36.5 µM
same,GI50,MDA-MB-435,14.3 µM
same,TGI,MDA-MB-435,29.5 µM
same,GI50,UACC-257 melanoma,12.7 µM
same,TGI,UACC-257 melanoma,28 µM
same,GI50,SK-OV-3 ovarian,24.7 µM
same,TGI,SK-OV-3 ovarian,51.3 µM
same,GI50,OVCAR-5 ovarian,17.6 µM
same,TGI,OVCAR-5 ovarian,36.3 µM
same,GI50,CAKI-1 renal,16.6 µM
same,TGI,CAKI-1 renal,32.1 µM
same,GI50,HCT-15 colon,6.65 µM
same,TGI,HCT-15 colon,33.8 µM
same,GI50,HCC-2998 colon,18.5 µM
same,TGI,HCC-2998 colon,35.9 µM
same,GI50,NCI-H460 lung,15.8 µM
same,TGI,NCI-H460 lung,32.1 µM
same,GI50,U251 CNS,10.4 µM
same,TGI,U251 CNS,22.6 µM
same,GI50,786-0 renal,4.27 µM
same,TGI,786-0 renal,16.4 µM
same,GI50,RPMI-8226 leukemia,3.19 µM
same,TGI,RPMI-8226 leukemia,13.9 µM
same,GI50,PC-3 prostate,14 µM
same,TGI,PC-3 prostate,31.1 µM
same,GI50,SK-MEL-28 melanoma,15 µM
same,TGI,SK-MEL-28 melanoma,30.1 µM
same,GI50,EKVX NSCLC,17.2 µM
same,TGI,EKVX NSCLC,41.4 µM
same,GI50,SK-MEL-5 melanoma,16.4 µM
same,TGI,SK-MEL-5 melanoma,30.7 µM
same,GI50,SNB-75 CNS,13.9 µM
same,TGI,SNB-75 CNS,32.4 µM
